Source: patent US10376520B2, “Methods for the treatment of cardiovascular disorders” (Galapagos NV, priority 2015, dated 2019)

System: Subjects With Active Crohn's Disease
Test: [HDL] determination, Study 5 (Crohn's disease)
Format: in vivo, human
Text: Double-Blind, Randomized, Placebo-Controlled, Multi-Centre Study to Investigate the Efficacy and Safety of Compound 1 in Subjects With Active Crohn's Disease With Evidence of Mucosal Ulceration.
This is a double-blind, randomized, placebo-controlled, multi-centre Phase 2 study to investigate the efficacy and safety of Compound 1 administered once daily for the treatment of active CD with evidence of mucosal ulceration. The pharmacokinetics (including a PK substudy) and pharmacodynamics of Compound 1 and metabolite in CD will also be characterised.
A total of 180 eligible subjects will be randomized to receive Compound 1 or placebo in addition to their stable background treatment (eg, corticosteroids, aminosalicylates, or CD-related antibiotics). The study will consist of 2 parts, with total treatment duration of 20 weeks. Randomization in Part 1 will be stratified according the subject's previous anti-TNF exposure/response, CRP level at Screening, and oral corticosteroid use at visit Day −1.
After the first 10 weeks of treatment in Part 1, patients will be re-randomized for Part 2 as shown in the diagram below and will be stratified according to the subject's clinical response, previous anti-TNF exposure/response, and oral corticosteroid use at visit Day −1.
The following assays were conducted at Eurofins Global Central Laboratory, Bergschot 71, 4817 PA Breda, The Netherlands, and at Quest Diagnostics, Clinical Trials, Quest House, 125-135 Staines Road, Hounslow, Middlesex, TW3 3JB, United Kingdom. The assays for Study 5 were performed at BARC Europe, 3B, Industrie Park, Zwijnaarde, B-9052 Ghent, Belgium.
This assay relies on a homogeneous enzymatic colorimetric test. In the presence of magnesium ions, dextran sulfate selectively forms water-soluble complexes with LDL, VLDL and chylomicrons which are resistant to PEG-modified enzymes.
The cholesterol concentration of [HDL]-cholesterol is determined enzymatically by cholesterol esterase and cholesterol oxidase coupled with PEG to the amino groups (approx. 40%).
In the presence of peroxidase, the hydrogen peroxide generated reacts with 4-amino-antipyrine and Sodium N-(2-hydroxy-3-sulfopropyl)-3,5-dimethoxyaniline (HSDA) to form a purple-blue dye. The color intensity of this dye is directly proportional to the cholesterol concentration and is measured photometrically.
Human serum and plasma samples [HDL] determination was done on a Roche/Hitachi Cobas c 701/702 system which automatically calculate the analyte concentration of each sample. Samples containing precipitates are centrifuged before performing the assay.

[1] = 200 mg q.d. continued to week 20; week 2
[2] = 200 mg q.d. continued to week 20; week 4
[3] = 200 mg q.d. continued to week 20; week 6
[4] = 200 mg q.d. continued to week 20; week 10
[5] = 200 mg q.d. continued to week 20; week 12
[6] = 200 mg q.d. continued to week 20; week 16
[7] = 200 mg q.d. continued to week 20; week 20
[8] = 200 mg q.d. week 0 to 10, then 100 mg q.d. (N = 30), week 2
[9] = 200 mg q.d. week 0 to 10, then 100 mg q.d. (N = 30), week 4
[10] = 200 mg q.d. week 0 to 10, then 100 mg q.d. (N = 30), week 6
[11] = 200 mg q.d. week 0 to 10, then 100 mg q.d. (N = 30), week 10
[12] = 200 mg q.d. week 0 to 10, then 100 mg q.d. (N = 30), week 12
[13] = 200 mg q.d. week 0 to 10, then 100 mg q.d. (N = 30), week 16
[14] = 200 mg q.d. week 0 to 10, then 100 mg q.d. (N = 30), week 20
[15] = 200 mg q.d. week 0 to 10, then placebo (N = 23), week 2
[16] = 200 mg q.d. week 0 to 10, then placebo (N = 23), week 4
[17] = 200 mg q.d. week 0 to 10, then placebo (N = 23), week 6
[18] = 200 mg q.d. week 0 to 10, then placebo (N = 23), week 10
[19] = 200 mg q.d. week 0 to 10, then placebo (N = 23), week 12
[20] = 200 mg q.d. week 0 to 10, then placebo (N = 23), week 16
[21] = 200 mg q.d. week 0 to 10, then placebo (N = 23), week 20
[22] = 200 mg q.d. week 0 to 10, to 100 mg q.d. week 10 to 20; week 2

In the case of `O=C(Nc1nc2cccc(-c3ccc(CN4CCS(=O)(=O)CC4)cc3)n2n1)C1CC1` [Compound 1, cyclopropanecarboxylic acid {5-[4-(1,1-dioxo-thiomorpholin-4-ylmethyl)-phenyl]-[1,2,4]triazolo[1,5-a]pyridin-2yl}-amide], the “[HDL] Mean CFB - 10 weeks results” value (200 mg q.d. (N = 130), week 2) is reported as 0.222 mmol/L, the “[HDL] Median CFB - 10 weeks results” value (200 mg q.d. (N = 130), week 2) is reported as 0.210 mmol/L and the “[HDL] Mean CFB - 10 weeks results” value (200 mg q.d. (N = 130), week 4) is reported as 0.237 mmol/L. For the same molecule, the “[HDL] Median CFB - 10 weeks results” value (200 mg q.d. (N = 130), week 4) was 0.210 mmol/L, the “[HDL] Mean CFB - 10 weeks results” value (200 mg q.d. (N = 130), week 6) was 0.243 mmol/L and the “[HDL] Median CFB - 10 weeks results” value (200 mg q.d. (N = 130), week 6) was 0.250 mmol/L. The “[HDL] Mean CFB - 10 weeks results” value (200 mg q.d. (N = 130), week 10) was 0.239 mmol/L, the “[HDL] Median CFB - 10 weeks results” value (200 mg q.d. (N = 130), week 10) was 0.260 mmol/L and the “[HDL] Median CFB - 10 weeks results” value (200 mg q.d. (N = 130); week 2) was 16.867%. The “[HDL] Median CFB - 10 weeks results” value (200 mg q.d. (N = 130); week 4) was 15.333%, the “[HDL] Median CFB - 10 weeks results” value (200 mg q.d. (N = 130); week 6) was 16.867% and the “[HDL] Median CFB - 10 weeks results” value (200 mg q.d. (N = 130); week 10) was 15.789%. For the same molecule, the “[HDL] Mean CFB - 20 weeks results” value [1] was 18.29%, the “[HDL] Median CFB - 10 weeks results” value [1] was 17.33% and the “[HDL] Mean CFB - 20 weeks results” value [2] was 15.66%. The “[HDL] Median CFB - 10 weeks results” value [2] was 9.91%, the “[HDL] Mean CFB - 20 weeks results” value [3] was 19.93% and the “[HDL] Median CFB - 10 weeks results” value [3] was 13.98%. The “[HDL] Mean CFB - 20 weeks results” value [4] was 17.97%, the “[HDL] Median CFB - 10 weeks results” value [4] was 12.50% and the “[HDL] Mean CFB - 20 weeks results” value [5] was 16.97%. For the same molecule, the “[HDL] Median CFB - 10 weeks results” value [5] was 9.94%, the “[HDL] Mean CFB - 20 weeks results” value [6] was 13.90% and the “[HDL] Median CFB - 10 weeks results” value [6] was 12.22%. For the same molecule, the “[HDL] Mean CFB - 20 weeks results” value [7] was 11.15%, the “[HDL] Median CFB - 10 weeks results” value [7] was 10.66% and the “[HDL] Mean CFB - 20 weeks results” value [8] was 0.24 mmol/L. The “[HDL] Median CFB - 20 weeks results” value [8] was 0.22 mmol/L, the “[HDL] Mean CFB - 20 weeks results” value [9] was 0.31 mmol/L and the “[HDL] Median CFB - 20 weeks results” value [9] was 0.22 mmol/L. The “[HDL] Mean CFB - 20 weeks results” value [10] was 0.33 mmol/L, the “[HDL] Median CFB - 20 weeks results” value [10] was 0.31 mmol/L and the “[HDL] Mean CFB - 20 weeks results” value [11] was 0.33 mmol/L. The “[HDL] Median CFB - 20 weeks results” value [11] was 0.26 mmol/L, the “[HDL] Mean CFB - 20 weeks results” value [12] was 0.17 mmol/L and the “[HDL] Median CFB - 20 weeks results” value [12] was 0.15 mmol/L. For the same molecule, the “[HDL] Mean CFB - 20 weeks results” value [13] was 0.11 mmol/L, the “[HDL] Median CFB - 20 weeks results” value [13] was 0.03 mmol/L and the “[HDL] Mean CFB - 20 weeks results” value [14] was 0.18 mmol/L. For the same molecule, the “[HDL] Median CFB - 20 weeks results” value [14] was 0.16 mmol/L, the “[HDL] Mean CFB - 20 weeks results” value [15] was 0.18 mmol/L and the “[HDL] Median CFB - 20 weeks results” value [15] was 0.18 mmol/L. For the same molecule, the “[HDL] Mean CFB - 20 weeks results” value [16] was 0.30 mmol/L, the “[HDL] Median CFB - 20 weeks results” value [16] was 0.39 mmol/L and the “[HDL] Mean CFB - 20 weeks results” value [17] was 0.15 mmol/L. For the same molecule, the “[HDL] Median CFB - 20 weeks results” value [17] was 0.16 mmol/L, the “[HDL] Mean CFB - 20 weeks results” value [18] was 0.16 mmol/L and the “[HDL] Median CFB - 20 weeks results” value [18] was 0.24 mmol/L. For the same molecule, the “[HDL] Mean CFB - 20 weeks results” value [19] was -0.12 mmol/L, the “[HDL] Median CFB - 20 weeks results” value [19] was -0.03 mmol/L and the “[HDL] Mean CFB - 20 weeks results” value [20] was -0.18 mmol/L. The “[HDL] Median CFB - 20 weeks results” value [20] was -0.05 mmol/L, the “[HDL] Mean CFB - 20 weeks results” value [21] was -0.21 mmol/L and the “[HDL] Median CFB - 20 weeks results” value [21] was -0.08 mmol/L. For the same molecule, the “[HDL] Mean CFB - 20 weeks results” value [22] was 20.28% and the “[HDL] Median CFB - 10 weeks results” value [22] was 17.11%.
